The target in data set [1] is T1, human recombinant His6-SIRT1 or GST-SIRT1 (Homo sapiens, UniProt Q96EB6).
T1 construct: His6 or GST (two alternative purchased preparations, not both on one protein); purchased Sigma-Aldrich China (His6-SIRT1); Cayman Chemical (GST-SIRT1)
T1 sequence (Q96EB6 1-747): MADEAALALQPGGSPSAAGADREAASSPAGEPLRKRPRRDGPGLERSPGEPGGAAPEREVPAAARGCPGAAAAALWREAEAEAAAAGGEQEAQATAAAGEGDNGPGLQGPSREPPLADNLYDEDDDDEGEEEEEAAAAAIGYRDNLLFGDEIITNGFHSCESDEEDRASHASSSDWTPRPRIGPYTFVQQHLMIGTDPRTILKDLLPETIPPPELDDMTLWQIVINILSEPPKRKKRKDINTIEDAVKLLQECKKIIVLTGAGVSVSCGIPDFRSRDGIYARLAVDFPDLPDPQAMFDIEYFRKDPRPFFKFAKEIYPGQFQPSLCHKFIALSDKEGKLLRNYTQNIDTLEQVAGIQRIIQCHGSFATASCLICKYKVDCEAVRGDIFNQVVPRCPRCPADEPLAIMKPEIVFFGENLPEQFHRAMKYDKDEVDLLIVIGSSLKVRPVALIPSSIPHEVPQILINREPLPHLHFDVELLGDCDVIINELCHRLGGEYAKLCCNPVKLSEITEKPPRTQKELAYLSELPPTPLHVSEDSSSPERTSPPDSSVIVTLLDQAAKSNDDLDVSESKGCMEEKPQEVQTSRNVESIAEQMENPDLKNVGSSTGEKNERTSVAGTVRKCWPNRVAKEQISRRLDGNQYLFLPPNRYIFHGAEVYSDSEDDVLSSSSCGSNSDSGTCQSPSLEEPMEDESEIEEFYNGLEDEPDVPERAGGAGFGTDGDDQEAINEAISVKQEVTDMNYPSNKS
Briefly: HPLC-based sirtuin deacylation activity assay, SIRT1. Format: biochemical. The note with it: substrate activity with SIRT1; 50 mM Hepes pH 8.0, 0.5 mM β-NAD+, SIRT1 243 nM, 37 °C, 5 min, HPLC 214 nm, Michaelis-Menten fit. As to the method:
The steady-state kinetic parameters (kcat and KM) for the SIRT1/2/3 substrate activities of the purified 5–8 were determined with a HPLC-based sirtuin deacylation activity assay and are recorded in Table 2 and Table 3. As judged by kcat/KM ratios, cyclic peptides 5–8 were all found to be excellent SIRT1 substrates, actually 5, 7, and 8 are all better SIRT1 substrates than the linear hexapeptide-based SIRT1 substrate 3 (depicted in Figure 2) reported in the current literature (kcat/KM = 800 M^−1 s^−1). Cyclic peptides 5–8 were also all found to be better SIRT3 substrates than the linear hexapeptide-based SIRT3 substrate 3 reported in the current literature (kcat/KM = 990 M^−1·s^−1).
The following materials were obtained from commercial sources for the in vitro sirtuin deacylation activity assay and the pronase digestion assay, and were used as received. Sigma-Aldrich China: the active human recombinant His6-SIRT1, Trizma, Hepes, β-NAD^+, a 1.0 M solution of MgCl2 (molecular-biology grade), the pronase from Streptomyces griseus; Cayman Chemical (Ann Arbor, MI, USA): the active human recombinant GST-SIRT1, the active human recombinant His6-SIRT2, the active human recombinant His6-SIRT3; TCI Shanghai: DL-dithiothreitol (DTT); Alfa Aesar China: NaCl, KCl.
A sirtuin deacylation assay solution contained the following: 50 mM Hepes (pH 8.0), 137 mM NaCl, 2.7 mM KCl, 1 mM MgCl2, 1 mM DTT, β-NAD^+ (~5.6 × KM: 0.5 mM for the SIRT1 and SIRT2 assays, 3.5 mM for the SIRT3 assay), one test compound (5, 6, 7, or 8) with varied concentrations including 0, and a sirtuin (His6-SIRT1 or GST-SIRT1, 243 nM; His6-SIRT2, 297 nM; or His6-SIRT3, 739 nM). An enzymatic reaction was initiated by the addition of a sirtuin at 37 °C and was incubated at 37 °C for 5 min (for the SIRT1 assay) or 2 min (for the SIRT2 and SIRT3 assays) until quenched with the following stop solution: 100 mM HCl and 0.16 M acetic acid. The quenched assay solutions were directly injected into a C18 column (0.46 × 25 cm, 5 μm), and the column was eluted with a gradient of ddH2O containing 0.05% (v/v) TFA and acetonitrile containing 0.05% (v/v) TFA at 1 mL/min and was monitored at 214 nm. Turnover of the limiting substrate was kept at <10%. Stock solutions of the test compounds were all prepared in ddH2O. The integrated product and substrate HPLC peak areas were then used to determine the initial velocities for the sirtuin-catalyzed deacylation reaction at different concentrations of a test compound (5, 6, 7, or 8). The initial velocity-concentration data were analyzed with KaleidaGraph® (Synergy Software, Reading, PA, USA) and the data were fitted to the Michaelis-Menten equation to obtain the kinetic parameters kcat and KM, as recorded in Table 2 and Table 3.

Data set [2] deals with His6-SIRT2, 297 nM. Briefly: 50 mM Hepes (pH 8.0), 137 mM NaCl, 2.7 mM KCl, 1 mM MgCl2, 1 mM DTT, β-NAD^+ 0.5 mM. The settings on record: human, 37 °C, up to 2 min.
In data set [3] the test system is His6-SIRT1 or GST-SIRT1, 243 nM. Described as above. The settings on record: human, 37 °C, up to 5 min.
Data set [4] deals with His6-SIRT3, 739 nM. As to the kind of experiment: 50 mM Hepes (pH 8.0), 137 mM NaCl, 2.7 mM KCl, 1 mM MgCl2, 1 mM DTT, β-NAD^+ 3.5 mM. The settings on record: human, 37 °C, up to 2 min.
Data set [5] deals with pronase. Briefly: pronase solution in 100 mM Tris HCl (pH 7.3) (8 ng/µL). The note with it: Streptomyces griseus, 37 °C, up to 60 min.

Numbered stars: 1 amine (or outer) side, 2 acyl side, 3 side chain; on linkers, the order of the positions; unused ones are H or OH. Bridge positions count the residues as written; N and C are the ends. Peptide text beside a SMILES is read from it. * marks the point of attachment. Suberoyl(Gly)2 = O=C(CCCCCCC(=O)NCC(=O)[*:2])NCC(=O)[*:1]; Suberoyl = O=C(CCCCCCC(=O)[*:2])[*:1]; Myristoyl = CCCCCCCCCCCCCC(=O)*; Suc = O=C(CCC(=O)[*:2])[*:1]

The KM is the substrate concentration at which the rate is half of its maximum. Take `CSCC[C@H](NC(=O)[C@@H]1CCCCNC(=O)CNC(=O)CCCCCCC(=O)NCC(=O)NCCCC[C@H](NC(C)=O)C(=O)N[C@@H](CCCCN)C(=O)N[C@@H](CCCCNC(C)=O)C(=O)N1)C(N)=O` [Compound 5] (Ac-KKK(Ac)KM-NH2; linker 1-4 via Suberoyl(Gly)2): in data set [1], the KM turned out to be 22.2 ± 1.8 µM and the kcat was 35.6 ± 5.1 10^−3, s^−1.

Take `CSCC[C@H](NC(=O)[C@@H]1CCCCNC(=O)CCC(=O)NCCCC[C@H](NC(C)=O)C(=O)N[C@@H](CCCCN)C(=O)N[C@@H](CCCCNC(C)=O)C(=O)N1)C(N)=O` [Compound 6] (Ac-KKK(Ac)KM-NH2; linker 1-4 via Suc): in data set [1], the KM was found to be 41.3 ± 1.83 µM and the kcat is recorded as 25.9 ± 2.3 10^−3, s^−1.

Consider `CCCCCCCCCCCCCC(=O)NCCCC[C@@H]1NC(=O)[C@H](CCCNC(=N)N)NC(=O)[C@@H](NC(C)=O)CCCCNC(=O)CCCCCCC(=O)NCCCC[C@@H](C(=O)N[C@H](C(N)=O)[C@@H](C)O)NC1=O` [Compound 7] (Ac-KRK(Myristoyl)KT-NH2; linker 1-4 via Suberoyl), for which, in data set [1], the KM turned out to be 2.85 ± 0.13 µM and the kcat is on record as 5.8 ± 0.1 10^−3, s^−1.

As for `CC(=O)NCCCC[C@@H]1NC(=O)[C@H](CCCCN)NC(=O)[C@@H](NC(C)=O)CCCCNC(=O)CNC(=O)CCCCCCC(=O)NCC(=O)NCCCC[C@@H](C(N)=O)NC1=O` [Compound 8] (Ac-KKK(Ac)K-NH2; linker 1-4 via Suberoyl(Gly)2), in data set [1], the Michaelis-Menten constant (KM) came out at 42.2 ± 17.5 µM.

In the case of “CH3CONH-Lys-Arg-(N^ε-myristoyl-Lysine)-Lys-Thr-NH2, side chains of Lys1 and Lys4 bridged by suberoyl (read from the drawn structure)”, the cleaved bond result in data set [2] is “SIRT2-catalyzed deacylation of N^ε-myristoyl-lysine”; in data set [3] it was “SIRT1-catalyzed deacylation of N^ε-myristoyl-lysine”; in data set [4], “SIRT3-catalyzed deacylation of N^ε-myristoyl-lysine”.

On to “CH3CONH-Lys-Lys-(N^ε-acetyl-Lysine)-Lys-Met-NH2, side chains of Lys1 and Lys4 bridged by Gly-suberoyl-Gly (read from the drawn structure)”, for which the cleaved bond entry in data set [2] is recorded as “SIRT2-catalyzed deacylation of N^ε-acetyl-lysine”; in data set [3] it was “SIRT1-catalyzed deacylation of N^ε-acetyl-lysine”; in data set [4], “SIRT3-catalyzed deacylation of N^ε-acetyl-lysine”. In data set [5], the fragment found is recorded as 5a.

With “CH3CONH-Lys-Lys-(N^ε-acetyl-Lysine)-Lys-Met-NH2, side chains of Lys1 and Lys4 bridged by succinyl (read from the drawn structure)”, the cleaved bond entry is reported as “SIRT2-catalyzed deacylation of N^ε-acetyl-lysine” in data set [2], “SIRT1-catalyzed deacylation of N^ε-acetyl-lysine” in data set [3] and “SIRT3-catalyzed deacylation of N^ε-acetyl-lysine” in data set [4].

Consider “CH3CONH-Lys-Lys-(N^ε-acetyl-Lysine)-Lys-NH2, side chains of Lys1 and Lys4 bridged by Gly-suberoyl-Gly (read from the drawn structure)”, for which the cleaved bond result was “SIRT2-catalyzed deacylation of N^ε-acetyl-lysine” in data set [2], “SIRT1-catalyzed deacylation of N^ε-acetyl-lysine” in data set [3] and “SIRT3-catalyzed deacylation of N^ε-acetyl-lysine” in data set [4].
